Source: ChEMBL document CHEMBL1201862, “PubChem BioAssay data set” (2004)
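A five-concentration, 48-hour dose response in 96-well plates underlies each endpoint, interpolated linearly between surrounding concentrations. GI50: concentration for 50% inhibition of growth.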 Calls of active or inactive are those of the source. Cut-off read from the data, not from the text of the source: active = GI50 up to about 1.1 µM and inactive = higher.

Legend:
Test in all cases: NCI tumour cell line growth inhibition, 48 h
OVCAR-5 = test system: OVCAR-5
HL-60 = test system: HL-60
SN12C = test system: SN12C
NCI-H460 = test system: NCI-H460
OVCAR-8 = test system: OVCAR-8
HOP-62 = test system: HOP-62
SF-295 = test system: SF-295
SK-MEL-5 = test system: SK-MEL-5
HT-29 = test system: HT-29
CCRF-CEM = test system: CCRF-CEM
Malme-3M = test system: Malme-3M
SF-268 = test system: SF-268
TK-10 = test system: TK-10
M14 = test system: M14
U-251 = test system: U-251
HOP-92 = test system: HOP-92
OVCAR-3 = test system: OVCAR-3
CAKI-1 = test system: CAKI-1
SR = test system: SR

Measured: GI50

CCc1cc2c(O)c(c1)Cc1cc(CC)cc(c1O)Cc1cc(CC)cc(c1O)Cc1cc(CC)cc(c1O)Cc1cc(CC)cc(c1O)Cc1cc(CC)cc(c1O)Cc1cc(CC)cc(c1O)C2
inactive: OVCAR-5 > 100 µM | HL-60 > 100 µM | SN12C > 100 µM | NCI-H460 > 100 µM | OVCAR-8 > 100 µM | HOP-62 > 100 µM | SF-295 > 100 µM | SK-MEL-5 > 100 µM | HT-29 > 100 µM | CCRF-CEM > 100 µM | Malme-3M > 100 µM | SF-268 > 100 µM | TK-10 > 100 µM | M14 > 100 µM | U-251 62.8 µM | HOP-92 44 µM | OVCAR-3 > 100 µM

CCc1nc2c([nH]1)C(=O)c1ccccc1C2=O
inactive: OVCAR-5 > 100 µM | CAKI-1 47.8 µM | HL-60 25.6 µM | SN12C 37.2 µM | NCI-H460 43 µM | OVCAR-8 57.9 µM | HOP-62 > 100 µM | SF-295 45.7 µM | HT-29 43.2 µM | CCRF-CEM 48.5 µM | Malme-3M 24.8 µM | SF-268 70 µM | TK-10 > 100 µM | M14 46.9 µM | SR 38.5 µM | U-251 55.5 µM | OVCAR-3 23 µM

O=C(Nc1ccccc1Cl)c1ccc([N+](=O)[O-])cc1
inactive: CAKI-1 > 100 µM | SN12C > 100 µM | NCI-H460 > 100 µM | OVCAR-8 > 100 µM | HOP-62 47.4 µM | SF-295 46.7 µM | SK-MEL-5 > 100 µM | HT-29 > 100 µM | CCRF-CEM > 100 µM | Malme-3M > 100 µM | SF-268 > 100 µM | TK-10 > 100 µM | M14 > 100 µM | U-251 > 100 µM | OVCAR-3 > 100 µM

CC(=O)OCC1OC(n2c(=O)n(-c3ccccc3)c(=O)c3cc(Br)cc(Br)c32)C(OC(C)=O)C(OC(C)=O)C1OC(C)=O (configuration not stated)
inactive: OVCAR-5 > 100 µM | CAKI-1 2.56 µM | HL-60 > 100 µM | SN12C > 100 µM | NCI-H460 > 100 µM | OVCAR-8 > 100 µM | HOP-62 88.7 µM | SF-295 12 µM | SK-MEL-5 > 100 µM | HT-29 > 100 µM | CCRF-CEM > 100 µM | Malme-3M > 100 µM | SF-268 > 100 µM | TK-10 > 100 µM | M14 > 100 µM | U-251 71 µM | HOP-92 > 100 µM | OVCAR-3 > 100 µM

COc1ccc(-c2oc3cc(O)c(OC)c(O)c3c(=O)c2OC2OC(CO)C(O)C(O)C2O)cc1 (configuration not stated)
inactive: HL-60 > 100 µM | SN12C > 100 µM | NCI-H460 43.3 µM | OVCAR-8 91 µM | SF-295 > 100 µM | SK-MEL-5 > 100 µM | HT-29 > 100 µM | CCRF-CEM > 100 µM | TK-10 > 100 µM | M14 > 100 µM | U-251 > 100 µM | HOP-92 > 100 µM | OVCAR-3 > 100 µM

Cc1ccc(Nc2cccc3c2C(=O)c2cccc(Nc4ccc(C)cc4S(=O)(=O)O)c2C3=O)c(S(=O)(=O)O)c1
inactive: CAKI-1 > 100 µM | HL-60 > 100 µM | SN12C > 100 µM | NCI-H460 > 100 µM | OVCAR-8 > 100 µM | HOP-62 > 100 µM | SK-MEL-5 > 100 µM | CCRF-CEM > 100 µM | Malme-3M > 100 µM | SF-268 > 100 µM | TK-10 > 100 µM | M14 > 100 µM | SR > 100 µM | U-251 > 100 µM | OVCAR-3 > 100 µM

C[n+]1c2ccccc2c(NC(CCC(N)=O)C(=O)O)c2ccccc21 (configuration not stated)
inactive: OVCAR-5 > 100 µM | HL-60 > 100 µM | SN12C > 100 µM | NCI-H460 > 100 µM | OVCAR-8 > 100 µM | HOP-62 > 100 µM | SF-295 > 100 µM | SK-MEL-5 > 100 µM | HT-29 > 100 µM | Malme-3M > 100 µM | SF-268 > 100 µM | TK-10 > 100 µM | M14 > 100 µM | SR > 100 µM | U-251 > 100 µM | HOP-92 > 100 µM | OVCAR-3 > 100 µM

C[Si](C)(C)/C(Br)=C\CCN1C(=O)CCC1O (configuration not stated)
inactive: OVCAR-5 > 100 µM | SN12C > 100 µM | NCI-H460 > 100 µM | OVCAR-8 > 100 µM | SF-295 > 100 µM | HT-29 > 100 µM | CCRF-CEM > 100 µM | Malme-3M > 100 µM | SF-268 > 100 µM | TK-10 > 100 µM | M14 > 100 µM | U-251 > 100 µM | HOP-92 91.4 µM | OVCAR-3 > 100 µM

Clc1cc(Cl)c2c(Cl)cc(Cl)c3c2c1N=S=N3
inactive: OVCAR-5 > 100 µM | CAKI-1 > 100 µM | HL-60 94.6 µM | OVCAR-8 > 100 µM | SF-295 > 100 µM | SK-MEL-5 > 100 µM | HT-29 > 100 µM | CCRF-CEM 52.1 µM | Malme-3M > 100 µM | SF-268 > 100 µM | TK-10 > 100 µM | M14 > 100 µM | U-251 > 100 µM | HOP-92 > 100 µM | OVCAR-3 > 100 µM

N=C(N)NS(=O)(=O)c1ccc(NC(=O)c2cccc3c(Nc4ccc(S(N)(=O)=O)cc4)c4ccccc4nc23)cc1
inactive: OVCAR-5 > 100 µM | CAKI-1 > 100 µM | SN12C > 100 µM | NCI-H460 > 100 µM | OVCAR-8 > 100 µM | HOP-62 > 100 µM | SF-295 > 100 µM | SK-MEL-5 > 100 µM | HT-29 > 100 µM | CCRF-CEM > 100 µM | Malme-3M > 100 µM | SF-268 > 100 µM | TK-10 > 100 µM | M14 > 100 µM | U-251 > 100 µM | HOP-92 > 100 µM | OVCAR-3 > 100 µM

COc1cc(/C=C(\C#N)c2ccccc2)cc(OC)c1
inactive: OVCAR-5 55.1 µM | CAKI-1 51.1 µM | HL-60 24.3 µM | SN12C 74.6 µM | NCI-H460 42.6 µM | OVCAR-8 > 10 µM | HOP-62 74.1 µM | SF-295 21.9 µM | SK-MEL-5 41.1 µM | HT-29 32.4 µM | CCRF-CEM 30.7 µM | Malme-3M > 100 µM | SF-268 40.9 µM | TK-10 > 100 µM | M14 33.8 µM | SR 36.1 µM | U-251 28.3 µM | OVCAR-3 > 100 µM

C[C@H]1CC[P+](C)(c2ccccc2)C1 (some centres not stated)
inactive: OVCAR-5 > 100 µM | HL-60 > 100 µM | SN12C > 100 µM | NCI-H460 > 100 µM | OVCAR-8 > 100 µM | HOP-62 > 100 µM | SF-295 > 100 µM | SK-MEL-5 > 100 µM | HT-29 > 100 µM | CCRF-CEM > 100 µM | Malme-3M > 100 µM | TK-10 > 100 µM | M14 > 100 µM | SR > 100 µM | U-251 > 100 µM | OVCAR-3 > 100 µM
